Read-outs that look alike come from different tables or passages of the source.
Experiments:
[1] = test system: MKN-45/Ubc-luc cells; assay: Proliferation assay (resazurin), MKN-45; format: cell-based; conditions: 72 hours incubation
[2] = test system: NCI-H2052 Tet-On shYAP_2371 pLenti6 MCAT_Luc cells (YAP-dependent transcription); assay: YAP reporter gene activity assay (MCAT-luciferase), NCI-H2052; format: cell-based; conditions: 24 hours incubation, BrightGlo luminescence
Summary of the method: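 Luminescence was read 5 min after BrightGlo, following 24 h at 37 °C of compound exposure (eleven 2-fold dilutions, DMSO normalized to 0.1%). Cells were NCI-H2052 with a YAP-responsive MCAT-luciferase and a Tet-inducible shRNA against YAP1 3′UTR. Cell-free background was removed, values were normalized to vehicle, and IC50 was fitted with four parameters.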

[3] = test system: NCI-H2052 Tet-On shYAP_2371 pLenti6 MCAT_Luc cells; assay: Proliferation assay (resazurin), NCI-H2052; format: cell-based; conditions: 72 hours incubation
Summary of the method: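 The NCI-H2052 line carries a Tet-inducible shRNA against the YAP1 3′UTR and an MCAT luciferase reporter. The day after seeding, it received eleven 2-fold compound dilutions at 0.1% DMSO, and viability was read by resazurin fluorescence.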

[4] = target: Avi-humanTEAD4 217-434 / Cy5 labeled humanYAP 60-100 (Homo sapiens (Human), UniProt Q15561); assay: TR-FRET YAP-TEAD4 in-vitro biochemical assay; format: binding; conditions: 1 nM Avi-humanTEAD4 217-434, 20 nM Cy5-humanYAP 60-100, 1 h room temperature
[5] = test system: MKN-45/Ubc-luc cells; assay: Reporter gene specificity control (Ubc-luciferase), MKN-45
Procedure: As a specificity control, MKN-45 cells were stably transduced with a Ubc-Luc reporter construct, in which constitutive expression of firefly luciferase is driven by the promoter of the ubiquitin C housekeeping gene.
Stock solutions of compounds were prepared at a concentration of 10 mM in DMSO and stored at 4° C. Where necessary to afford a full dose-response curve, the stock solutions were pre-diluted in DMSO to 1'000-fold the desired reduced start concentration. On the day after cell seeding, eleven 2-fold serial dilutions of each compound were dispensed directly into the cell assay plates using a HP 300D non-contact Digital Dispenser (TECAN, Mannedorf, Switzerland). The final concentration of DMSO was normalized to 0.1% in all wells.
The ability of compounds to inhibit YAP-dependent transcription was assessed in NCI-H2052 Tet-On shYAP_2371 pLenti6 MCAT_Luc cells, while specificity (lack of unspecific inhibition of luciferase expression of activity) was assessed in MKN-45/Ubc-luc cells. […] Following incubation for 24 hours at 37° C., compound-mediated modulation of reporter-gene activity was quantified 5 min after addition of 20 μl BrightGlo (Promega, Cat #E2620), by measuring luminescence intensity on a multi-mode plate-reader (TECAN, Männedorf, Switzerland, Integration time 100 ms). For data analysis, the assay background value determined in wells containing medium, but no cells, was subtracted from all data points. Dose-dependent compound effects were expressed as % of vehicle-treated control (luminescence signal produced by cells receiving DMSO only) and IC50s calculated using a four-parametric fit model.

[6] = read-out: Reporter gene assay MKN-45 IC50, MKN-45/Ubc-luc cells (YAP deleted, specificity control), 24 hours incubation
[7] = Homo sapiens, MKN-45, 24 h, read-out: Reporter gene assay MKN-45 IC50 [μM], MKN-45/Ubc-luc cells (YAP deleted, specificity control), 24 hours incubation

Chain of Avi-humanTEAD4 217-434 / Cy5 labeled humanYAP 60-100 (Q15561 217-434): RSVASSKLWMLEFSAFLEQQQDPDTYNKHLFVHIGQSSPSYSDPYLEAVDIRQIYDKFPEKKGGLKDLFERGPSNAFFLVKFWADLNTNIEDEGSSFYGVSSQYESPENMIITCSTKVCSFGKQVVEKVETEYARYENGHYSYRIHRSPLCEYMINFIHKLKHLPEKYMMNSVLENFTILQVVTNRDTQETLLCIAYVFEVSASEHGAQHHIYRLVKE

Row | SMILES | GI50 [1] [nM] | IC50 [2] [nM] | GI50 [3] [nM] | IC50 [4] [nM] | IC50 [5, 6] [µM] | GI50 ([1]; Homo sapiens) [nM] | GI50 ([3]; Homo sapiens, NCI-H2052, 72 h) [nM] | IC50 [5, 7] [µM] | IC50 ([2]; Homo sapiens, NCI-H2052, 24 h) [nM]
1 | COc1ccc(C(N)=O)c(-c2c(Cl)ccc3c2C[C@@](CN[C@H]2CC[C@@H](O)CC2)(c2ccccc2)O3)c1F (relative stereo) [Example 27b, 2-((2S,4S)-5-chloro-2-(((cis-4-hydroxycyclohexyl)amino)methyl)-2-phenyl-2,3-dihydrobenzofuran-4-yl)-3-fluoro-4-methoxybenzamide] | > 10000 | 78 | 182 | 1 | > 10 |  |  |  | 
2 | COc1ccc(C(N)=O)c(-c2c(Cl)ccc3c2C[C@@](CN[C@H]2CC[C@H](C(=O)O)CC2)(c2ccccc2)O3)c1F (relative stereo) [Example 28a, (Trans)-4-((((2S,4S)-4-(6-carbamoyl-2-fluoro-3-methoxyphenyl)-5-chloro-2-phenyl-2,3-dihydrobenzofuran-2-yl)methyl)amino)cyclohexanecarboxylic acid] | > 10000 | 86 | 224 | 3 | > 10 |  |  |  | 
3 | COc1ccc(C(N)=O)c(-c2c(Cl)ccc3c2C[C@@](CN[C@H]2CC[C@@H](C(=O)O)CC2)(c2ccccc2)O3)c1F (relative stereo) [Example 28b, (cis)-4-((((2S,4S)-4-(6-carbamoyl-2-fluoro-3-methoxyphenyl)-5-chloro-2-phenyl-2,3-dihydrobenzofuran-2-yl)methyl)amino)cyclohexanecarboxylic acid] | > 10000 | 55 | 148 | 3 | > 10 |  |  |  | 
4 | NC(=O)c1ccc(OC(F)F)c(F)c1-c1c(Cl)ccc2c1[C@H](O)[C@@](CN[C@H]1CC[C@H](O)CC1)(c1ccccc1)O2 (relative stereo) [Example 94a, 2-((2S,3S,4S)-5-chloro-3-hydroxy-2-((((trans)-4-hydroxycyclohexyl)amino)methyl)-2-phenyl-2,3-dihydrobenzofuran-4-yl)-4-(difluoromethoxy)-3-fluorobenzamide] | > 10000 | 45 | 68 | 2 | > 10 |  |  |  | 
5 | NC(=O)c1ccc(OC(F)F)c(F)c1-c1c(Cl)ccc2c1[C@H](O)[C@@](CN[C@H]1CC[C@@H](O)CC1)(c1ccccc1)O2 (relative stereo) [Example 94b, 2-((2S,3S,4S)-5-chloro-3-hydroxy-2-((((cis)-4-hydroxycyclohexyl)amino)methyl)-2-phenyl-2,3-dihydrobenzofuran-4-yl)-4-(difluoromethoxy)-3-fluorobenzamide] | > 10000 | 83 | 101 | 3 | > 10 |  |  |  | 
6 | C[C@H]1c2c(ccc(Cl)c2-c2c(C(N)=O)ccc(OC(F)F)c2F)O[C@]1(CN[C@H]1CC[C@@](C)(O)CC1)c1ccccc1 (relative stereo) [Example 104a, 2-((2S,3S,4S)-5-chloro-2-((((cis)-4-hydroxy-4-methylcyclohexyl)amino)methyl)-3-methyl-2-phenyl-2,3-dihydrobenzofuran-4-yl)-4-(difluoromethoxy)-3-fluorobenzamide] | 6200 | 35 | 144 | 3 | > 10 |  |  |  | 
7 | C[C@H]1c2c(ccc(Cl)c2-c2c(C(N)=O)ccc(OC(F)F)c2F)O[C@]1(CN[C@H]1CC[C@](C)(O)CC1)c1ccccc1 (relative stereo) [Example 104b, 2-((2S,3S,4S)-5-chloro-2-((((trans)-4-hydroxy-4-methylcyclohexyl)amino)methyl)-3-methyl-2-phenyl-2,3-dihydrobenzofuran-4-yl)-4-(difluoromethoxy)-3-fluorobenzamide] | > 10000 | 22 | 55 | 2 | > 10 |  |  |  | 
8 | NC(=O)c1ccc(OCCO)c(F)c1-c1c(Cl)c(F)cc2c1C[C@@](CN[C@H]1C[C@@H](C(F)F)C1)(c1ccccc1)O2 (relative stereo) [Example 140a, 2-((2S,4S)-5-Chloro-2-((((cis)-3-(difluoromethyl)cyclobutyl)amino)methyl)-6-fluoro-2-phenyl-2,3-dihydrobenzofuran-4-yl)-3-fluoro-4-(2-hydroxyethoxy)benzamide] | > 10000 | 23 | 28 | 4 | > 10 |  |  |  | 
9 | NC(=O)c1ccc(OCCO)c(F)c1-c1c(Cl)c(F)cc2c1C[C@@](CN[C@H]1C[C@H](C(F)F)C1)(c1ccccc1)O2 (relative stereo) [Example 140b, 2-((2S,4S)-5-chloro-2-((((trans)-3-(difluoromethyl)cyclobutyl)amino)methyl)-6-fluoro-2-phenyl-2,3-dihydrobenzofuran-4-yl)-3-fluoro-4-(2-hydroxyethoxy)benzamide] | > 10000 | 28 | 29 | 6 | > 10 |  |  |  | 
10 | COc1ccc(C(N)=O)c(-c2c(Cl)ccc3c2C[C@@](CN)(c2ccccc2)O3)c1F (single isomer, unassigned) [Example 5a] | > 10000 | 130 | 280 | 5 | > 20 |  |  |  | 
11 | COc1ccc(C(N)=O)c(-c2c(Cl)ccc3c2C[C@@](CN)(c2ccccc2)O3)c1F (single isomer, unassigned) [Example 5b] | > 10000 | > 10000 | > 10000 | 23300 | > 10 |  |  |  | 
12 | CC(=O)NC1CCC(NC[C@@]2(c3ccccc3)Cc3c(cc(F)c(Cl)c3-c3c(C(N)=O)ccc(OC(F)F)c3F)O2)CC1 (single isomer, unassigned) [Example 56a] |  | 70 |  | 2 |  | > 10000 | 195 | > 10 | 
13 | CC(=O)NC1CCC(NC[C@@]2(c3ccccc3)Cc3c(cc(F)c(Cl)c3-c3c(C(N)=O)ccc(OC(F)F)c3F)O2)CC1 (single isomer, unassigned) [Example 56b] | > 10000 | 194 | 372 | 11 | 7.6 |  |  |  | 
14 | CN(C)C(=O)C1CCC(NC[C@@]2(c3ccccc3)Cc3c(cc(F)c(Cl)c3-c3c(C(N)=O)ccc(OC(F)F)c3F)O2)CC1 (single isomer, unassigned) [Example 58a] |  |  |  | 4 |  | > 10000 | 125 | > 10 | 67
15 | CN(C)C(=O)C1CCC(NC[C@@]2(c3ccccc3)Cc3c(cc(F)c(Cl)c3-c3c(C(N)=O)ccc(OC(F)F)c3F)O2)CC1 (single isomer, unassigned) [Example 58b] | > 10000 | 104 | 167 | 6 | > 10 |  |  |  | 
16 | CC(C)(O)C1CC(NC[C@@]2(c3ccccc3)Cc3c(cc(F)c(Cl)c3-c3c(C(N)=O)ccc(OC(F)F)c3F)O2)C1 (single isomer, unassigned) [Example 62a] |  | 203 | 240 | 16 |  | > 10000 |  | > 10 | 
17 | CC(C)(O)C1CC(NC[C@@]2(c3ccccc3)Cc3c(cc(F)c(Cl)c3-c3c(C(N)=O)ccc(OC(F)F)c3F)O2)C1 (single isomer, unassigned) [Example 62b] | > 10000 | 54 | 89 | 6 | > 10 |  |  |  | 
18 | NC(=O)c1ccc(OC(F)F)c(F)c1-c1c(Cl)c(F)cc2c1C[C@](c1ccccc1)(C1CC(O)CN1)O2 (single isomer, unassigned) [Example 158] |  |  |  | 5 |  | > 10000 | 181 | > 10 | 93
19 | Fc1cc2c(c(-c3ccccc3)c1Cl)C[C@](c1ccccc1)(C1COCCN1)O2 (single isomer, unassigned) [Example 162] |  |  |  | 1520 |  | > 10000 | 1760 | > 10 | 1000
20 | CS(=O)(=O)[C@H]1CC[C@@H](NC[C@@]2(c3ccccc3)Cc3c(cc(F)c(Cl)c3-c3c(C(N)=O)ccc(OC(F)F)c3F)O2)CC1 [Example 54a, 2-((2S,4S)-5-Chloro-6-fluoro-2-((((cis)-4-(methylsulfonyl)cyclohexyl)amino)methyl)-2-phenyl-2,3-dihydrobenzofuran-4-yl)-4-(difluoromethoxy)-3-fluorobenzamide] |  |  |  | 75 |  | > 10000 | 670 | > 10 | 147
21 | CS(=O)(=O)[C@H]1CC[C@H](NC[C@@]2(c3ccccc3)Cc3c(cc(F)c(Cl)c3-c3c(C(N)=O)ccc(OC(F)F)c3F)O2)CC1 [Example 54b, 2-((2S,4S)-5-chloro-6-fluoro-2-((((trans)-4-(methylsulfonyl)cyclohexyl)amino)methyl)-2-phenyl-2,3-dihydrobenzofuran-4-yl)-4-(difluoromethoxy)-3-fluorobenzamide] |  |  |  | 22 |  | > 10000 | 258 | > 10 | 118

Reference: patent US12083101B2, “Biaryl derivatives as YAP/TAZ-TEAD protein-protein interaction inhibitors” (Novartis AG, priority 2020, dated 2024)
